Test results as given in article PMC3961306, “Comparison of the Cancer Gene Targeting and Biochemical Selectivities of All Targeted Kinase Inhibitors Approved for Clinical Use” (PLoS ONE, 2014).

What was measured:
Assay in all cases: Kinase profiling in a biochemical assay panel (mobility shift assays and ELISA), %-inhibition at 1 μM; selectivity entropy
[1] = biological target: T1, panel of more than 300 wild-type and mutant kinases (313 kinase panel) (Homo sapiens, UniProt O43781); details: kinase DYRK3; compound at 1 μM
T1 sequence (O43781 1-588): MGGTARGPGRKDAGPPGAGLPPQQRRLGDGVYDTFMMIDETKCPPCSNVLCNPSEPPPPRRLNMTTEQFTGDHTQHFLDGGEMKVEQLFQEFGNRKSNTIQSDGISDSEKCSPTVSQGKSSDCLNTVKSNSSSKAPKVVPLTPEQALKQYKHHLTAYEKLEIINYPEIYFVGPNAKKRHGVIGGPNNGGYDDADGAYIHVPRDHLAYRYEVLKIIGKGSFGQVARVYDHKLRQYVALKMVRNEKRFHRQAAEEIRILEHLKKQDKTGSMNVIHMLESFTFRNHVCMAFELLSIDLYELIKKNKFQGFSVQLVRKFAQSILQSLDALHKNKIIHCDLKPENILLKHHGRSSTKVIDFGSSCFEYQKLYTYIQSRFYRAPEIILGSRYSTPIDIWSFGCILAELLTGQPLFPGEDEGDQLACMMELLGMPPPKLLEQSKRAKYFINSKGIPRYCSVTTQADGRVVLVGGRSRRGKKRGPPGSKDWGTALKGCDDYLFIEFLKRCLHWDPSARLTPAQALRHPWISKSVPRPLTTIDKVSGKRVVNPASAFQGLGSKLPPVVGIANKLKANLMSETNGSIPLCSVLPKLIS

[2] = biological target: panel of more than 300 wild-type and mutant kinases (313 kinase panel) (Homo sapiens, UniProt O75582); details: kinase MSK1; 1 μM
[3] = biological target: panel of more than 300 wild-type and mutant kinases (313 kinase panel) (Homo sapiens, UniProt P10721, V654A); details: kinase KIT(V654A); compound at 1 μM
Sequence of panel of more than 300 wild-type and mutant kinases (313 kinase panel) (Homo sapiens, UniProt P10721, V654A) (P10721 26-976 V654A): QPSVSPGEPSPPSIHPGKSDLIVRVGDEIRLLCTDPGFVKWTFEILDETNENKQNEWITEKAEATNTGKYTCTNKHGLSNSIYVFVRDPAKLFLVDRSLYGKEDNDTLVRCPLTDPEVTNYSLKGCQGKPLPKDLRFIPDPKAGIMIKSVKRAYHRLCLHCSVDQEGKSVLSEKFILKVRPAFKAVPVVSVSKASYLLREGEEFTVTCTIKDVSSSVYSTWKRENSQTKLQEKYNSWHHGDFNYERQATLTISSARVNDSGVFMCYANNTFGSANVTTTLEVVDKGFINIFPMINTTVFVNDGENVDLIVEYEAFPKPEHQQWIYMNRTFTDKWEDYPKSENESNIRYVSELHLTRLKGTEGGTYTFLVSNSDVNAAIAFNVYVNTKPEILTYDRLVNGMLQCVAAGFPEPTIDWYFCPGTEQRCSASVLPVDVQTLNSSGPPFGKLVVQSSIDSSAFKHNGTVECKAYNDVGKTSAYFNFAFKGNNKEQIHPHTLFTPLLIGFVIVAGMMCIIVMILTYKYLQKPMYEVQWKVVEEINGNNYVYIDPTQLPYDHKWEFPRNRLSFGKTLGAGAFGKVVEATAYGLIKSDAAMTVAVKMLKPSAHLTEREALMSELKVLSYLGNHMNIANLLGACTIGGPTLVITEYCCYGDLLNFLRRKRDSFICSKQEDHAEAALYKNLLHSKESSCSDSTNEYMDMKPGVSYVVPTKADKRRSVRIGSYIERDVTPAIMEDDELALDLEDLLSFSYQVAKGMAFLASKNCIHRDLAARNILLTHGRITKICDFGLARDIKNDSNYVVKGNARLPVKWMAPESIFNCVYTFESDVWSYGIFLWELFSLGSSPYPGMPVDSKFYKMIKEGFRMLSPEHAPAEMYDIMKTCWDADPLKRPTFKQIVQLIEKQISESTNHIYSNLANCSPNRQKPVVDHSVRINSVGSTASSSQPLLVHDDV

[4] = biological target: panel of more than 300 wild-type and mutant kinases (313 kinase panel) (Homo sapiens, UniProt P22455, V550L); details: kinase FGFR4(V550L); compound at 1 μM
Sequence of panel of more than 300 wild-type and mutant kinases (313 kinase panel) (Homo sapiens, UniProt P22455, V550L) (P22455 22-802 V550L): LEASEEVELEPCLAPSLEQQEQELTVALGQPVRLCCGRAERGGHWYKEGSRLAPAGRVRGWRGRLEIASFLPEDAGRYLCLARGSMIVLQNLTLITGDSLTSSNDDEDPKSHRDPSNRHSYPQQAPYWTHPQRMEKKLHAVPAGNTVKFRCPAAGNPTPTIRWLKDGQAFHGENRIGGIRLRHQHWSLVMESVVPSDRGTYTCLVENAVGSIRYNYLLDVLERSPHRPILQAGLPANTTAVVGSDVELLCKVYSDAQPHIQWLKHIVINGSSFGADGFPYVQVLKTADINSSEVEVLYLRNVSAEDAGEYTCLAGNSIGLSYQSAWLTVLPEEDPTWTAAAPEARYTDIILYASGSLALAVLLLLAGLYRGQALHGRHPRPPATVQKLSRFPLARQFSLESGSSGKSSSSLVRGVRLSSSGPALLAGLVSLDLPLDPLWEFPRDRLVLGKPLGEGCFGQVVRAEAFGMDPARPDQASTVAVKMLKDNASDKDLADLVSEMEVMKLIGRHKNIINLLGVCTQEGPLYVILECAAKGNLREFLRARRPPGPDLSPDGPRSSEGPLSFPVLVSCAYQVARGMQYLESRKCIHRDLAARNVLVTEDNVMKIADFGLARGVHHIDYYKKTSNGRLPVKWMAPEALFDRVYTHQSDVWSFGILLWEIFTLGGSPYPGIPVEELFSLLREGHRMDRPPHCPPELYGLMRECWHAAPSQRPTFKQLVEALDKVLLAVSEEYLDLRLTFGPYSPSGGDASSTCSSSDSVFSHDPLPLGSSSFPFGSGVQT

[5] = biological target: panel of more than 300 wild-type and mutant kinases (313 kinase panel) (Homo sapiens, UniProt P41279); details: kinase COT; compound at 1 μM
Sequence of panel of more than 300 wild-type and mutant kinases (313 kinase panel) (Homo sapiens, UniProt P41279) (P41279 whole entry, change not shown): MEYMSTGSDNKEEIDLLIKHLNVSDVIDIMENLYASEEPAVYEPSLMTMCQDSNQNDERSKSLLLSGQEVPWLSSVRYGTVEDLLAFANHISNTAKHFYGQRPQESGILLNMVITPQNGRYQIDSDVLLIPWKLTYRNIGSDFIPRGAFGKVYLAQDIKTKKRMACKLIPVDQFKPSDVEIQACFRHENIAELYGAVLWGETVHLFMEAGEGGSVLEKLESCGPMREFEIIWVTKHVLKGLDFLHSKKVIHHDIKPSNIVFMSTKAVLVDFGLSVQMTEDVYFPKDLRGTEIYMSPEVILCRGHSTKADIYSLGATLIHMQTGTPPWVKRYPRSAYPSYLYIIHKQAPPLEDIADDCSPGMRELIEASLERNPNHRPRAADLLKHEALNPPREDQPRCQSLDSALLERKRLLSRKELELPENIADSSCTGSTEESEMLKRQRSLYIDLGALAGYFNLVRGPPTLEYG

[6] = biological target: T2, panel of more than 300 wild-type and mutant kinases (313 kinase panel) (Homo sapiens, UniProt P54760); details: kinase EPHB4; compound at 1 μM
T2 sequence (P54760 16-987): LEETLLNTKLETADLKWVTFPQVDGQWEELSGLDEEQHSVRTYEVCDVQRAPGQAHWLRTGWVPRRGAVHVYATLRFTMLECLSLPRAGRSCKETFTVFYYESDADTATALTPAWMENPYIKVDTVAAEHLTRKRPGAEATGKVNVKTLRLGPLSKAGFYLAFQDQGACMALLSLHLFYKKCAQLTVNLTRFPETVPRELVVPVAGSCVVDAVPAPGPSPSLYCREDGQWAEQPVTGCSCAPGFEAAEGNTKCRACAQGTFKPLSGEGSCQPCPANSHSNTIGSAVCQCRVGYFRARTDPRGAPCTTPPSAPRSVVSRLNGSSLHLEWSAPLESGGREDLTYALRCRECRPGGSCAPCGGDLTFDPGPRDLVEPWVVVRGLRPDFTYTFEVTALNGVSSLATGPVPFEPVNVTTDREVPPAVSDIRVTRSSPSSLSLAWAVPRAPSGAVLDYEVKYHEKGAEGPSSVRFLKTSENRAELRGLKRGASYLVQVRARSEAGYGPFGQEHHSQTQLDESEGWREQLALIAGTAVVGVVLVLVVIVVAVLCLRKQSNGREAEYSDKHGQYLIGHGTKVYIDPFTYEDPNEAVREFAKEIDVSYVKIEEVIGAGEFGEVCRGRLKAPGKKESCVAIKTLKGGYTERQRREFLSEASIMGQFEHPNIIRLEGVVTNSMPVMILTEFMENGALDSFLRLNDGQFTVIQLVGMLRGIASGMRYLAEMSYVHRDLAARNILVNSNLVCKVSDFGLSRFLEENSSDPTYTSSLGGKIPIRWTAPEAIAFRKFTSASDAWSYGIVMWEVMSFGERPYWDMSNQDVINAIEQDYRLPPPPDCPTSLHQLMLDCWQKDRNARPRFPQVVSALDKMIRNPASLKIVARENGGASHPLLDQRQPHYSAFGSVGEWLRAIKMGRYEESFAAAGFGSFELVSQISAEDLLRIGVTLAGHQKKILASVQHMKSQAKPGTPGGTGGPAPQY

[7] = biological target: T3, panel of more than 300 wild-type and mutant kinases (313 kinase panel) (Homo sapiens, UniProt Q16566); details: kinase CaMK4; 1 μM compound
T3 sequence (Q16566 1-473): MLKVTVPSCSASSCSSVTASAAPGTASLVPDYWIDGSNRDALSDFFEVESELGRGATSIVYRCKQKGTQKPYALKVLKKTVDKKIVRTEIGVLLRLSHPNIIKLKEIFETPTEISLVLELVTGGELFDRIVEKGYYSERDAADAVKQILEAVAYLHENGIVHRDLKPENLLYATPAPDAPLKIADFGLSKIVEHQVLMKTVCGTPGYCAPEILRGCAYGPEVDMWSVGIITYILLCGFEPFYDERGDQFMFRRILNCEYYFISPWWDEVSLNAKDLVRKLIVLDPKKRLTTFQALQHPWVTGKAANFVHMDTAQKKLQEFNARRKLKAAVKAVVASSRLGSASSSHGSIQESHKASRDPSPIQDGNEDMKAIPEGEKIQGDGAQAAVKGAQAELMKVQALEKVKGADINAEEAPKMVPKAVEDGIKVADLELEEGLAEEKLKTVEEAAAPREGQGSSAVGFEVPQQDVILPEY

[8] = biological target: panel of more than 300 wild-type and mutant kinases (313 kinase panel) (Homo sapiens, UniProt Q9H1R3); details: kinase skMLCK; 1 μM
[9] = biological target: panel of more than 300 wild-type and mutant kinases (313 kinase panel) (Homo sapiens, UniProt Q9UK32); details: kinase RSK4; 1 μM
Sequence of panel of more than 300 wild-type and mutant kinases (313 kinase panel) (Homo sapiens, UniProt Q9UK32) (Q9UK32 whole entry, change not shown): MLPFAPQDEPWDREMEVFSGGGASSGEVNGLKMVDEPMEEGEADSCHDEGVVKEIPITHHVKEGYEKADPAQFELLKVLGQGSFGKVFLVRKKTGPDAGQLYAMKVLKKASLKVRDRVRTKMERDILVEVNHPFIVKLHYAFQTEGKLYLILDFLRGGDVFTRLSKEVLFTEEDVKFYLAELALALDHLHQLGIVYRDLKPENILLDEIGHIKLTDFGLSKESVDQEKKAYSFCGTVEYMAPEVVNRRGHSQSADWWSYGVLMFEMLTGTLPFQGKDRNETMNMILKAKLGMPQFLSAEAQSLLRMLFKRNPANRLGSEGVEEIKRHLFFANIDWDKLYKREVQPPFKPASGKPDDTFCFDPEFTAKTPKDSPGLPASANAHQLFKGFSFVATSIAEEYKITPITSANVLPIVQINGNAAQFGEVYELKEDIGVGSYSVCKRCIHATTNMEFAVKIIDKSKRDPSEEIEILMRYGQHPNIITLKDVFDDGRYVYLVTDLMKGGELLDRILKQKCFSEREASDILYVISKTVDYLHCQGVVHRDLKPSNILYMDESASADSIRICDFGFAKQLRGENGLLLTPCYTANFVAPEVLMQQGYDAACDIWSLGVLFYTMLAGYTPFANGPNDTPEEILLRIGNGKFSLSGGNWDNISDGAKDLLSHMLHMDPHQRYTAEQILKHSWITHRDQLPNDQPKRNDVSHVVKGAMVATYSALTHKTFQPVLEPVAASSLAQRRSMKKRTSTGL

SMILES	%-inhibition of DYRK3 [1]	%-inhibition of MSK1 [2]	%-inhibition of KIT(V654A) [3]	%-inhibition of FGFR4(V550L) [4]	%-inhibition of COT [5]	%-inhibition of EPHB4 [6]	%-inhibition, CaMK4 [7]	%-inhibition of skMLCK [8]	%-inhibition of RSK4 [9]
N#CC[C@H](C1CCCC1)n1cc(-c2ncnc3[nH]ccc23)cn1 [ruxolitinib]	-9%	37%	-10%	16%	-3.66%	0.569%	-2.58%	-4.71%	3.16%
CO[C@H]1C[C@@H]2CC[C@@H](C)[C@@](O)(O2)C(=O)C(=O)N2CCCC[C@H]2C(=O)O[C@H]([C@H](C)C[C@@H]2CC[C@@H](OCCO)[C@H](OC)C2)CC(=O)[C@H](C)/C=C(\C)[C@@H](O)[C@@H](OC)C(=O)[C@H](C)C[C@H](C)/C=C/C=C/C=C/1C [everolimus]	-11%	-2%	-3.52%	-10%	-3%	-4.49%	-11%	-8%	-8%
CC(=O)Nc1cccc(-n2c(=O)n(C3CC3)c(=O)c3c(Nc4ccc(I)cc4F)n(C)c(=O)c(C)c32)c1 [trametinib]	-10%	-0.531%	-1.62%	-0.155%	13%	-3.38%	-5.45%	-3.34%	0.208%
CO[C@H]1C[C@@H]2CC[C@@H](C)[C@@](O)(O2)C(=O)C(=O)N2CCCC[C@H]2C(=O)O[C@H]([C@H](C)C[C@@H]2CC[C@@H](OC(=O)C(C)(CO)CO)[C@H](OC)C2)CC(=O)[C@H](C)/C=C(\C)[C@@H](O)[C@@H](OC)C(=O)[C@H](C)C[C@H](C)/C=C/C=C/C=C/1C [temsirolimus]	-0.454%	0%	-4.65%	-8.55%	8%	-9%	-9%	-1.73%	-6%
